Reference: patent US20230321074A1, “USE OF CHIAURANIB IN COMBINATION WITH IMMUNE CHECKPOINT INHIBITOR IN ANTITUMOR THERAPY” (SHENZHEN CHIPSCREEN BIOSCIENCES, CO., LTD., priority 2020, published 2023)
Several values for one entry are separate records, joined by “and”; a condition that tells them apart may be missing. Equal entries are not always repeated. Entries after “also recorded” stand apart in the source; their conditions may differ.

Key:
[1] = Body weight and tolerability in B-hPD-1/hPD-L1 humanized mice transplanted with MC38-hPD-L1; assay type: in vivo, mouse; details: for Body weight change (g) Day 27 of administration / Body weight (g) Day 27 of administration in groups / Body weight (g) before administration: MC38-hPD-L1 model; for Body weight (g) Day 27 of administration in groups / Body weight (g) before administration: mean ± standard error; for Body weight (g) before administration: baseline; for toxic side effects on animals / safety: at test doses: chiauranib 2.5 mg/kg, reference PD-L1 antibody 1 mg/kg and 3 mg/kg
Protocol: (§1) A certain number of cells were cultured and collected, the MC38-hPD-L1 cells resuspended in PBS were subcutaneously inoculated into B-hPD-1/hPD-L1 humanized mice on the right side at a concentration of 5×10^5 cells/0.1 mL and a dose of 0.1 mL/mouse. After an average tumor volume reached about 104 mm^3, appropriate mice were selected according to tumor volume and body weight, and uniformly divided into 6 experimental groups, 8 mice per group, and administration was carried out on the day of grouping.

[2] = tested on: MC38-hPD-L1 colon cancer cells; assay: Efficacy on B-hPD-1/hPD-L1 humanized mouse MC38-hPD-L1 colon cancer model; assay type: in vivo; details: for Tumor volume (mm^3) Day 27 of administration in groups / Tumor volume (mm^3) before administration / Tumor weight: mean ± standard error; for inhibitory effect on growth of MC38-hPD-L1 subcutaneously transplanted tumors (experiment summary): at test doses: chiauranib 2.5 mg/kg; for inhibitory effect on growth of MC38-hPD-L1 subcutaneously transplanted tumors (experiment summary) / inhibitory effect on growth of MC38-hPD-L1 subcutaneously transplanted tumors (tumor volume) / inhibitory effect on growth of MC38-hPD-L1 subcutaneously transplanted tumors (tumor weight): reference PD-L1 antibody 1 mg/kg and 3 mg/kg; for Tumor volume (mm^3) before administration: baseline; for inhibitory effect on growth of MC38-hPD-L1 subcutaneously transplanted tumors (tumor volume): day 27, P<0.05 vs control; for inhibitory effect on growth of MC38-hPD-L1 subcutaneously transplanted tumors (tumor volume) / inhibitory effect on growth of MC38-hPD-L1 subcutaneously transplanted tumors (tumor weight): chiauranib 2.5 mg/kg; for inhibitory effect on growth of MC38-hPD-L1 subcutaneously transplanted tumors (tumor weight) / Tumor weight: end of experiment; for inhibitory effect on growth of MC38-hPD-L1 subcutaneously transplanted tumors (tumor weight): P<0.05 vs control; for Tumor weight / TGITV (%) / TGITW (%): day 27; for TGITV (%): tumor inhibition rate by tumor volume; for TGITW (%): tumor weight inhibition
Protocol: Mouse colon cancer MC38 cells were purchased from Shunran Biology, cultured in an incubator under 5% CO2 at 37° C., and a medium was Dulbecco's Modified Eagle's Medium containing 10% inactivated fetal bovine serum. Biocytogen carried out genetic modification on the MC38 cells to enable the MC38 cells to overexpress human PD-L1, and knocked out mouse PD-L1, and the cells were named MC38-hPD-L1 cells. A reference PD-L1 antibody used in the experiment was constructed and produced by the in-house laboratory according to a sequence of the marketed antibody drug MPDL3280A.
as §1
Results were recorded, tumor inhibition rates (TGITV) were calculated, and statistical analysis between groups was carried out according to tumor volume.

[3] = tested on: colonic cancer cell line CT-26; assay: Efficacy on tumor Balb/c mouse models inoculated with colonic cancer cell line CT-26 (tumor volume); assay type: in vivo; details: CT-26 in Balb/c mice; chiauranib 20 mg/kg intragastric once a day; PD-1 antibody 10 mg/kg i.p. twice a week; vs solvent control
Protocol: A large number of CT-26 cells were cultured and kept in a logarithmic growth state. After the number of cells reached a required level, the cells were digested and collected by trypsin, thoroughly washed twice with a large amount of PBS to remove trypsin and serum components, centrifuged at room temperature at 800 rpm for 10 min, and a supernatant was discarded. The cells were resuspended in DMEM without FBS, and the cell concentration was adjusted to 5×10^6 cells/mL.
Under sterile conditions, the cell suspension was injected subcutaneously into the back of Balb/c mice at 100 μL/injection, one injection per mouse. […]
(§2) 8 days after cell inoculation, tumors grew to an average volume of about 100 mm^3, and the tumor-bearing mice were randomly divided into four groups (9 mice per group), that is, a solvent control group, a chiauranib group (20 mg/kg, intragastric administration, once a day), a PD-1 antibody group (10 mg/kg, intraperitoneal injection, twice a week), and a chiauranib and PD-1 antibody combined administration group, marked, raised in separate cages, administered daily in groups, and observed for tumor formation. The longest diameter (length) and the widest diameter (width) perpendicular to the longest diameter of the tumor was measured by using a vernier caliper every 2 days, and the tumor volume was calculated according to a formula: TS=length×(width)^2/2, and recorded. […]

[4] = tested on: spleen lymphocyte subsets CD4 and CD8; assay: Proportions of spleen lymphocyte subsets in CT-26 tumor-bearing mice (flow cytometry); assay type: in vivo, mouse; details: CT-26 tumor-bearing Balb/c mice; chiauranib 20 mg/kg intragastric once a day; PD-1 antibody 10 mg/kg i.p. twice a week; after last administration on 14th day
Protocol: as §2, with “recorded. The mice were subjected to intragastric administration once a day regularly, and after the last administration on the 14th day, the mice were sacrificed to take the spleens and make a single cell suspension. 1×10^6 spleen cells were taken and stained with fluorescein labelled anti-CD4 and CD8 antibodies (1:200) at 4° C. for 30 min. After being washed, the cells were resuspended in PBS, and detected by using a flow cytometer FACSCanto II.” for “recorded.”

[5] = tested on: mouse liver cancer H22 cells; assay: Efficacy on female BALB/c mouse models subcutaneously transplanted with mouse liver cancer H22 cell line; assay type: in vivo
Protocol: Mouse liver cancer H22 cells (purchased from CCTCC; cell No. TC-00011) were cultured in an RPMI-1640 medium (purchased from Gibco) containing 10% fetal bovine serum. H22 cells in exponential growth phase were collected, resuspended in PBS to an appropriate concentration, and subcutaneously inoculated into mice. Female mice were subcutaneously inoculated with 1×10^6 H22 cells on the right front side. After tumors grew to an average volume of 104 mm^3, the mice were randomly grouped (see Table 1) according to the tumor size, administration was carried out on the day of grouping, and the day of inoculation of tumor cells was defined as day 0.
On the 19th day of the experiment (day 15 of administration in groups), an average tumor volume of the solvent control group was measured to be 2060.99 mm^3, the experiment was completed, photos of the tumor-bearing mice were taken, the tumors were taken out and weighed, and photos of the tumors were taken. A formula for calculating tumor volume: tumor volume (mm^3)=1/2×(a×b^2) (where, a represents a long diameter, and b represents a short diameter).

[6] = Body weight, deaths and tolerability in H22 tumor-bearing BALB/c mice; assay type: in vivo; details: H22 model
[7] = cited from earlier work
[8] = Reference PD-L1 antibody 3 mg/kg i.p. Q3D, chiauranib 2.5 mg/kg p.o. QD in the combination
[9] = groups G2, G3, G5 (chiauranib 2.5 mg/kg; Reference PD-L1 antibody 1 mg/kg)
[10] = groups G4, G6 (Reference PD-L1 antibody 3 mg/kg; chiauranib 2.5 mg/kg in the combination)
[11] = chiauranib 2.5 mg/kg p.o. QD, Reference PD-L1 antibody 1 mg/kg i.p. Q3D
[12] = chiauranib 5 mg/kg p.o. QD, mouse PD-1 antibody 5 mg/kg i.p. BIW

Row | Compound | Body weight (g) before administration [1, 9] | Body weight change (g) Day 27 of administration [1, 11] | Body weight (g) Day 27 of administration in groups [1, 11] | toxic side effects on animals / safety [1] | inhibitory effect on growth of MC38-hPD-L1 subcutaneously transplanted tumors (experiment summary) [2] | Tumor volume (mm^3) before administration [2, 9] | Tumor volume (mm^3) Day 27 of administration in groups [2, 11] | inhibitory effect on growth of MC38-hPD-L1 subcutaneously transplanted tumors (tumor volume) [2] | inhibitory effect on growth of MC38-hPD-L1 subcutaneously transplanted tumors (tumor weight) [2] | Tumor weight [2, 11] | TGITV (%) [2, 11] | TGITW (%) [2, 11] | also measured
1 | Reference PD-L1 antibody: constructed and produced by the in-house laboratory according to a sequence of the marketed antibody drug MPDL3280A | 21.6 ± 0.3 g | +3.8 g | 25.4 ± 0.4 g | do not produce toxic side effects to animals; also recorded: do not produce toxic and side effects on animals | significant inhibitory effects | 104 ± 4 mm^3 | 1469 ± 144 mm^3 | significant inhibitory effects | significant inhibitory effects | 1.316 ± 0.106 g | 38.5% | 39.8% | Body weight change (g) Day 27 of administration [1, 8]: +3.7 g; Body weight (g) Day 27 of administration in groups [1, 8]: 25.0 ± 0.5 g; Body weight (g) before administration [1, 10]: 21.3 ± 0.5 g; Tumor volume (mm^3) Day 27 of administration in groups [2, 8]: 1207 ± 195 mm^3; Tumor volume (mm^3) before administration [2, 10]: 104 ± 3 mm^3; Tumor weight [2, 8]: 1.182 ± 0.199 g; TGITV (%) [2, 8]: 50.3%; TGITW (%) [2, 8]: 45.9%
2 | COc1ccc2c(Oc3ccc4c(C(=O)Nc5ccccc5N)cccc4c3)ccnc2c1 [chiauranib, Chiauranib] | 21.1 ± 0.3 g | +3.1 g | 24.2 ± 0.6 g | do not produce toxic side effects to animals; also recorded: do not produce toxic and side effects on animals | significant inhibitory effects | 104 ± 4 mm^3 | 1021 ± 158 mm^3 | significant inhibitory effects | significant inhibitory effects | 0.837 ± 0.108 g | 58.6% | 61.7% | relative tumor inhibition rate [3]: 39%; average proportion of spleen lymphocyte subset CD4 [4]: 9.9%; average proportion of spleen lymphocyte subset CD8 [4]: 6.1%; TGI (%) Day 19 (relative tumor inhibition rate) ([5]; (1 - T/C) x 100%, chiauranib 5 mg/kg p.o. QD, mouse PD-1 antibody 5 mg/kg i.p. BIW): 26%; T/C (%) Day 19 ([5]; TRTV/CRTV x 100%, chiauranib 5 mg/kg p.o. QD, mouse PD-1 antibody 5 mg/kg i.p. BIW): 74%; Tumor volume (mm^3) Day 19 ([5]; day 15 of administration, chiauranib 5 mg/kg p.o. QD x 15 days, mouse PD-1 antibody 5 mg/kg i.p. BIW x 5, mean ± standard error): 1527.40 mm^3 and 1527.40 ± 145.56 mm^3; Tumor volume (mm^3) Day 5 ([5]; day of grouping, baseline before treatment, mean ± standard error): 104.09 ± 2.73 mm^3; RTV ([5]; relative tumor volume Vt/V0, Day 19, chiauranib 5 mg/kg p.o. QD, mouse PD-1 antibody 5 mg/kg i.p. BIW): 14.51; Body weight change rate (%) Day 19 [6, 12]: 5.59%; Number of animals of experiment at the beginning/end [6, 12]: 10/10; Average body weight (g) Day 5 ([6]; day of grouping, baseline, mean ± standard error): 21.3 ± 0.3 g; Average body weight (g) Day 19 ([6]; end of experiment, chiauranib 5 mg/kg p.o. QD, mouse PD-1 antibody 5 mg/kg i.p. BIW, mean ± standard error): 22.4 ± 0.3 g
3 | avelumab+BSC: PD-L1 antibody drug avelumab (Bavencio, Pfizer and Merck KGaA) plus best supportive care |  |  |  |  |  |  |  |  |  |  |  |  | median OS ([7]; patients with advanced UC after platinum-based chemotherapy): 21.4 months; overall survival (OS) hazard ratio [HR] ([7]; vs BSC alone, 95% CI 0.56, 0.86, 1-sided p=0.0005, all enrolled patients): 0.69; increase of OS ([7]; vs BSC group): more than 7 months
